The test system of test [1] is ovariectomized (OVX) Wistar rats. Nature of the test: APO-induced responses in ovariectomized (OVX) rats. In kind it is in vivo, rat. The method, then:
A modification of a previous protocol using APO (80 ug/kg in 100 ug/ml ascorbic acid in water, s.c.) was used^(17). […] Rats were placed in hanging cages with bottoms constructed of Plexiglas®, in a dark, quiet room where they were allowed to acclimate for 10 minutes before the testing period. Following APO administration, the number of genital responses and associated yawning responses were recorded for a 30 minute period via a video monitoring system in an adjacent room.
APO-induced responses were determined in ovariectomized (OVX)^(22) rats to determine the effect of reduced levels of endogenous hormones. In brief, animals were anaesthetized with isoflurane gas delivered via a Bain rebreathing system. A small midline dorsal skin incision was made approximately half-way between the middle of the back and the base of the tail. Both ovaries were removed by ligating and severing the junction between the fallopian tube and uterine hom. Post-operative analgesia (buprenorphine, Buprenex™, 0.05 mg/kg) and antibiotics (0.1 ml/100 g body wt., Tribrissen™ 24%, Schering Canada Inc.) were administered daily for 5 days. Animals were given at least one week to recover before the onset of experimentation.

Test [2] has as its system aged (18 months) female Wistar rats. Nature of the test: Recovery of APO-induced GVA response in aged female rats with short-term anti-hypertensive treatment. Format: in vivo, rat. As for the experimental part:
Aged (18 months) and control (3-4 months) female Wistar rats were assessed for APO-induced GVA response as described above (Example 1). Aged females were then treated with enalapril (30 mg kg^−1day^−1, orally)+low salt diet for 2 weeks. Prior to, during, and after treatment, apomorphine (80 ug kg^−1, s.c.) was used to elicit GVA responses. The frequency of GVA responses per rat for a 30-minute period was determined as described above (Example 1).

Test [3] relates to male spontaneously hypertensive rats (SHR). Put plainly: APO-induced penile erectile response in aging SHR with anti-hypertensive and testosterone treatments. In kind it is in vivo, rat. Conditions: for number of erections relative to pre-treatment: summary of Example 3; for increase in number of erections two weeks off treatment: third treatment at 68 weeks, previously untreated rats, low salt diet, 30 mg/kg per day. As for the experimental part: Animals: 30-week-old male spontaneously hypertensive rats (Charles River Laboratories, Montreal, Quebec, Canada) were housed individually at a temperature of 22-24° C. with a 12-hour light/dark cycle. They were provided with free access to regular rodent chow (0.4% Na^+) and tap water. All procedures were performed in accordance with the guidelines of the Canadian Council on Animal Care.
Anti-hypertensive Treatments. Rats were randomly divided into three groups. The control animals received only tap water. One treatment group received the ACE inhibitor enalapril maleate (30 mg/kg per day), and the other received the vasodilator hydralazine (45 mg/kg per day) (enalapril and hydralazine supplied by Sigma Chemical Co., St. Louis, Mo.) administered orally through their drinking water for 2 weeks. Aspartame (100 mg/1) was added to the hydralazine solution to improve the taste. Drug concentrations were calculated based on previously established drinking patterns^(24). Several times throughout the 2-week treatment period, the drug concentrations in the drinking water were adjusted to account for fluctuations in animal weight or fluid intake. Erectile response was measured in all groups with the administration of apomorphine (APO). APO-testing was performed three times before treatment and twice between days 7-14 of treatment.
A second two-week anti-hypertensive treatment was performed at 49 weeks of age. Rather than trying to prevent erectile dysfunction, this treatment attempted to restore erectile function. The same drugs and procedures were used as outlined above. APO-testing was performed twice between days 7-14 of treatment and twice off treatment.
Rats were randomized into four new treatment groups. The previously untreated rats received enalapril (30 mg/kg per day) or losartan (30 mg/kg per day) in their drinking water and were fed a low sodium diet (0.04% Na^+). After 6 days of treatment, a daily 4-hour access to salt containing regular chow (0.4% Na^+) was permitted to allow for a depressor response of 50% of the pre-treatment levels^(25). The treated rats received enalapril (30 mg/kg per day) in their drinking water and a low sodium diet (0.04% Na^+) or a triple therapy treatment^(24) combining hydralazine (45 mg/kg per day), a calcium channel blocker, nifedipine (200 mg per day) and a diuretic, hydrochlorothiazide (100 mg/l) (all drugs supplied by Sigma Chemical Co., St. Louis, Mo.). Hydralazine and hydrochlorothiazide were administered in the drinking water and nifedipine was mixed into ground regular rodent chow during the 12 h dark cycle. Aspartame (100 mg/l) was added to the hydralazine solution to improve the taste. APO-testing was performed twice between days 7-14 of treatment and twice off treatment.
Testosterone was prepared from a stock solution of testosterone propionate (Taro Pharmaceuticals, Bramalea, Ontario) diluted in peanut oil. Each rat received a single dose of testosterone (480 μg/kg) administered via subcutaneous injection in the neck. Testosterone was administered 36 hours prior to APO-testing.
Assessment of Erectile Response. Erectile response was assessed using the well-established bio-assay rat model developed by Heaton et al.^(17). The rats were placed in separate, wire hanging-wall cages with clear Plexiglas bottoms in a dark, quiet room and allowed to acclimate for 20 minutes. Each rat received apomorphine (80 μg/kg) in saline ([…] apomorphine plus 100 μg/ml ascorbic acid) via subcutaneous injection (1 ml/kg) in the loose skin of the neck or back. Erections and yawns were counted at 5-minute intervals over a 30-minute period via videomonitoring in an adjacent room.

The subject of a further test is female Wistar rats. Put plainly: APO-induced genital vasocongestive arousal (GVA) response bio-assay, intact rats. Conditions: for average number of GVA responses: APO 80 ug/kg s.c.; for average number of GVA responses / yawning responses: 30 minutes; for yawning responses: intact animals.
[4] abbreviates: distribution over the 30-minute period.

For the compound `CN1CCc2cccc3c2[C@H]1Cc1ccc(O)c(O)c1-3` [APO, apomorphine], in test [1] (8 OVX Wistar rats, 30 minute period), the “reduction of GVA responses in OVX rats relative to intact animals” value is “about 80%”. Further, the “non-GVA responses, OVX vs intact animals” value in test [1] (APO administration) is on record as “no significant difference”. Besides, the “average GVA responses in control (3-4 months) female rats” value in test [2] (APO 80 ug/kg s.c., 30 minute period) was “about 2”. In addition, the “APO-induced GVA response rate in aged females” value in test [2] (pre-treatment) is given as 40%. For the same compound, the “GVA responses in aged female rats relative to controls” value in test [2] (prior to anti-hypertensive treatment, APO 80 ug/kg s.c.) was “significantly fewer”. Further, the “APO-induced erectile responses with age” value in test [3] (SHR 30-68 weeks, APO 80 μg/kg s.c.) was “progressive loss of response”. In addition, the “share of total GVA responses occurring within the first 20 minutes” value with female Wistar rats (30-minute period) is given as 80%. Besides, in the test with female Wistar rats (APO 40, 80 & 120 ug/kg, result for 80 ug/kg, preliminary studies), the “genital grooming responses, dose-response assessment” value is listed as “greatest number of genital grooming responses”. In the test on female Wistar rats (any stage of the estrous cycle), the “non-GVA responses, APO vs control tested animals” value is reported as “no significant difference”. For the same compound, the “average number of GVA responses” value was found to be 1.13±1.36 in the test with female Wistar rats (diestrus 1); 0.88±0.85 in the test with female Wistar rats (diestrus II); 1.75±1.67 in the test on female Wistar rats (estrus); 1.5±1.20 in the test with female Wistar rats (metestrus); 1.5±1.06 in the test on female Wistar rats (proestrus, 8 rats). In addition, the yawning responses is reported as 2±2.50 in the test on female Wistar rats (diestrus 1) and 3.63±3.96 in the test on female Wistar rats (metestrus). The “time of peak of APO-induced GVA responses” value with female Wistar rats (setting [4]) was 5 to 10 min. In addition, the “time of peak of APO-induced yawning responses” value in the test on female Wistar rats (setting [4]) lay within 15 to 20 min.
As for `CCC(=O)O[C@H]1CC[C@H]2[C@@H]3CCC4=CC(=O)CC[C@]4(C)[C@H]3CC[C@]12C` [Testosterone, testosterone propionate], in test [3] (66 weeks of age), the “effect of testosterone on erectile response” value is “did not increase erectile response” and the “effect of testosterone on number of yawns” value was “significantly increase”. Further, the “effect of testosterone supplementation on number of erections” value in test [3] (control rats and rats treated with hydralazine, 47 and 66 weeks of age, 480 μg/kg s.c.) is reported as “did not significantly affect”. Moreover, the “increase in number of erections with testosterone” value in test [3] (enalapril treated rats, after the first testosterone treatment) came to 2.5 fold.
Turning to `CCOC(=O)[C@H](CCc1ccccc1)N[C@@H](C)C(=O)N1CCC[C@H]1C(=O)O` [enalapril], in test [2] (1 & 3 week off-treatment, p<0.05), the “frequency of APO-induced GVA responses off treatment relative to the treatment period” value was “persistent and significant increase”. Further, in test [2] (compared to pre-treatment levels), the “persistence of increased sexual responsiveness to APO after cessation of treatment” value is recorded as “persisted for at least ten weeks”. Also, in test [2] (during anti-hypertensive treatment), the “overall APO-induced GVA response rate in aged females” value amounted to 56%. For the same compound, in test [2] (enalapril 30 mg/kg/day orally + low salt diet, 2 weeks, p=0.065), the “APO-induced GVA responses during anti-hypertensive treatment” value is “trend of increasing”. The “overall APO-induced GVA response rate in aged females” value in test [2] (off-treatment) worked out at 93%. Further, the partial behavioural responses entry in test [2] (persisted after cessation of the treatment, FIG. 2) is given as “increase in the number of partial behavioural responses”. The “APO-induced GVA response of aged rats after two weeks of daily treatment” value in test [2] (summary of pilot study) is on record as “increased to levels of young rats”. Further, the “average number of erections two weeks after treatment was withdrawn” value in test [3] (second treatment at 49 weeks) is reported as “significantly higher level than the pre treatment values”. In addition, the “increase in average number of erections on treatment vs pre treatment” value in test [3] (second treatment at 49 weeks, not significant) was greater than 2 fold. In test [3], the “number of erections relative to pre-treatment” value is “significant increases” and the “increase in number of erections two weeks off treatment” value is 2 fold.
Regarding `CCCCc1nc(Cl)c(CO)n1Cc1ccc(-c2ccccc2-c2nn[nH]n2)cc1` [losartan], in test [3], the “number of erections relative to pre-treatment” value was “significant increases” and the “increase in number of erections two weeks off treatment” value was found to be 2 fold.

These data come from patent US20040138291A1, “Treatment of sexual dysfunction” (priority 2002, published 2004).
